In patent US20220249397A1, “Automated Dosing Protocol for Use of Cannabinoids or Other Psychoactive Substances” (Function Better Inc., priority 2021, published 2022):

Tests used:
Assay type in all cases: in vivo, human
[1] = test system: subjects being treated for pain; experiment: Experimental trial, 9-day dosing protocol, subjects treated for pain
Description: (§1) An experimental trial was conducted on 11 subjects who followed a 9-day dosing protocol for CBD oil. The subjects sought treatment for anxiety, pain, or sleep. On a daily basis, the subjects rated the intensity of their symptoms on a 0-10 numeric scale, with 0 being best and 10 being worst intensity. This scale was constructed similar to the standard ‘Numeric Pain Rating Scale’ often used in clinical practice for pain assessment.
(§2) The trial further enrolled five additional subjects. […] Days 1-3 were a maximum of 5 mg CBD; days 4-6 were a maximum of 10 mg CBD; days 7-9 were a maximum of 20 mg CBD.

[2] = test system: subjects being treated for anxiety; experiment: Experimental trial, 9-day dosing protocol, subjects treated for anxiety
Description: as §1, §2

[3] = test system: subjects being treated for either anxiety, sleep, or pain; experiment: Experimental trial, all 16 subjects combined (anxiety, sleep or pain), mean daily scores
Description: as §1, §2

user with pain = experiment: Example 1: 9 day dose titration protocol by automated text messages, user treating pain; parameters: key to pain score: higher = worse pain; 8 = severe, 6 = moderate
Description: In this example This is an example of an automated text message exchange with a user for a 9 day (consecutive) dose titration protocol is sufficient to achieve a minimum effective dose. In this example, Twilio was the automated text messaging service that was used. The cannabinoid medication kit is three 15 ml bottles of CBD tincture (i.e. CBD mixed into an ethyl alcohol base): bottle #1, bottle #2, and bottle #3. Bottle #1 contains CBD at a concentration of 100 mg in 5 ml volume (20 mg/ml). Bottle #2 contains CBD at a higher concentration (2×) of 200 mg in 5 ml volume (40 mg/ml). Bottle #3 contains CBD at a further higher concentration (3×) of 300 mg in 5 ml volume (60 mg/ml). Because the three bottles have different dose amounts, to facilitate identifying the correct bottle and avoid mistakes, bottle #1 has a blue-colored label, bottle #2 has a yellow-colored label, and bottle #3 has an orange-colored label. The user inputs the product code or batch number. This ensures that the relevant dosing protocol is associated with the correct cannabinoid product.
On day #1, the user reports a pain score of 8, indicating severe pain. Accordingly, the user is instructed to take the first dose of 6.25 mg from the (blue bottle) twice daily, and continue this dose regimen for the next three days. To facilitate correct adherence to the instructions, the user is shown an image of the blue bottle and the correct liquid level marking on the graduated dropper. On day #2, the user reports a pain score of 6, indicating a reduction in pain symptoms to a moderate level.
On day #4, the user reports a pain score of 5, indicating a reduction in pain symptoms. […] The user is shown an image of the yellow bottle and the correct liquid level marking on the graduated dropper. On day #5, the user reports a pain score of 7, indicating a flare-up of the pain symptoms. The user is asked whether there were any external factors that might have caused this flare-up. […] Thus, the user is asked whether to pause the protocol to allow the user to reassess whether this treatment will be beneficial. Here, the user desires to continue CBD treatment.
Accordingly, the user is given reassurance and instructed to continue at the same dose (i.e. 12.5 mg twice daily).
It is now time for the user to increase the dose amount to stabilize the pain at that level. Accordingly, the user is instructed to switch to the orange bottle (60 mg/ml) and take 18.75 mg twice daily. The user is shown an image of the orange bottle and the correct liquid level marking on the graduated dropper. […] Accordingly, the user is instructed to continue the same dosing regimen (i.e. 18.75 mg twice daily). […] Accordingly, the user has reached the personalized minimum effective dose and is instructed to continue the same dosing regimen (i.e. 18.75 mg twice daily) from hereon. At the end of the protocol, the user also receives a summary report that indicates the minimum effective dose, the lowest pain score achieved, the starting and ending benchmarks, and a graph plotting the daily symptom scores.

## C=C(C)[C@@H]1CCC(C)=C[C@H]1c1c(O)cc(CCCCC)cc1O [CBD, cannabidiol]
[1]; Subject #C1_4, pain
  minimum optimal dose: 10 mg of CBD/day
[1]; Subject #C1_4, started with score of 3, 0-10 scale
  pain score after completion of the protocol: 0
[2]; Subject #C1_8, anxiety
  minimum optimal dose: 20 mg of CBD/day
[2]; Subject #C1_8, started with score of 5, 0-10 scale
  anxiety score after completion of the protocol: 1
[2]; Subject #C1_10, anxiety
  minimum optimal dose: 10 mg of CBD/day
[2]; Subject #C1_10, started with score of 7, 0-10 scale
  anxiety score after completion of the protocol: 2
[3]; days 1-3 max 5 mg, days 4-6 max 10 mg, days 7-9 max 20 mg CBD, FIG. 7
  mean scores, initial versus end score: mean scores improved
[3]; days 1-9, FIG. 8
  mean daily scores, trend line: downward trending line
User with pain; day #2, CBD tincture 6.25 mg twice daily, day #1 score 8
  pain score: 6
User with pain; day #3, CBD tincture 6.25 mg twice daily
  pain score: 6
User with pain; day #4, after 6.25 mg twice daily for three days
  pain score: 5
User with pain; day #5, 12.5 mg twice daily, flare-up
  pain score: 7
User with pain; day #6, 12.5 mg twice daily
  pain score: 5
User with pain; day #7, after 12.5 mg twice daily
  pain score: 4
User with pain; day #8, 18.75 mg twice daily
  pain score: 4
User with pain; day #9, 18.75 mg twice daily
  pain score: 4
User with pain; reached on day #9, pain
  personalized minimum effective dose: 18.75 mg twice daily
